Experimental data as given in patent US20130109682A1, “CYCLIC ETHER COMPOUNDS USEFUL AS KINASE INHIBITORS” (NOVARTIS AG, priority 2010, published 2013).

Columns and labels:
[1] = system: KMS11 (human myeloma cell line); assay: Cell proliferation assay (CellTiter-Glo), KMS11; type: cell-based; details: KMS11-Luc cells
Procedure, shortened: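 EC50 derived from CellTiter-Glo luminescence after 3-day exposure at 37° C. Compound was diluted to 2× in medium and added to an equal volume of cells. KMS11 myeloma cells were plated on assay day at 2000/well in IMDM with 10% FBS and sodium pyruvate.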

PIM1 = PIM1 (Homo sapiens, UniProt P11309); assay: KinaseGlo Pim1 ATP depletion assay; type: biochemical
Procedure, shortened: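 IC50 is derived from residual ATP measured by KinaseGlo Plus luminescence once about half the ATP was consumed. Final conditions were 20 μM ATP, 40 μM BAD peptide and 2.5 nM kinase in HEPES pH 7.5 buffer with MgCl2, DTT and BSA, plus 2.5% DMSO. Compound and enzyme were premixed 15 min before ATP addition.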

GSK3β = GSK3β (Homo sapiens, UniProt P49841); assay: GSK3β ATP depletion assay; type: biochemical; details: read-out: GSK3b IC50
Procedure, shortened: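 Kinase activity is read as ATP consumption: luciferase luminescence reports the ATP remaining once roughly half of the 2 μM ATP is used. Reaction mix: 5 nM GSK3β, 10 μM b-CREB peptide, 50 mM Tris pH 7.5, 15 mM MgCl2, 1 mM DTT, 0.1% BSA, 2.5% DMSO. Enzyme and peptide are preincubated 15 min before ATP is added.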

PIM2 = PIM2 (Homo sapiens, UniProt Q9P1W9); assay: KinaseGlo Pim2 ATP depletion assay; type: biochemical
Procedure, shortened: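 Compound sat 15 min with enzyme and BAD peptide before ATP was added; final levels 5 nM PIM2, 10 μM peptide, 4 μM ATP, 2.5% DMSO, pH 7.5 HEPES buffer with MgCl2, DTT, BSA. Stopped near 50% ATP consumption; remaining ATP measured by luciferase luminescence.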

PIM3 = PIM3 (Homo sapiens, UniProt Q86V86); assay: KinaseGlo Pim3 ATP depletion assay; type: biochemical
Procedure, shortened: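 Residual ATP was detected by luciferase luminescence once about half had been consumed. The reaction contained 5 nM enzyme, 100 μM BAD peptide (RSRHSSYPAGT) and 40 μM ATP in 50 mM HEPES pH 7.5, 5 mM MgCl2, 1 mM DTT and 0.05% BSA with 2.5% DMSO. Compound and enzyme/peptide were premixed 15 min before ATP.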

Chain of GSK3β (P49841 whole entry, species assumed): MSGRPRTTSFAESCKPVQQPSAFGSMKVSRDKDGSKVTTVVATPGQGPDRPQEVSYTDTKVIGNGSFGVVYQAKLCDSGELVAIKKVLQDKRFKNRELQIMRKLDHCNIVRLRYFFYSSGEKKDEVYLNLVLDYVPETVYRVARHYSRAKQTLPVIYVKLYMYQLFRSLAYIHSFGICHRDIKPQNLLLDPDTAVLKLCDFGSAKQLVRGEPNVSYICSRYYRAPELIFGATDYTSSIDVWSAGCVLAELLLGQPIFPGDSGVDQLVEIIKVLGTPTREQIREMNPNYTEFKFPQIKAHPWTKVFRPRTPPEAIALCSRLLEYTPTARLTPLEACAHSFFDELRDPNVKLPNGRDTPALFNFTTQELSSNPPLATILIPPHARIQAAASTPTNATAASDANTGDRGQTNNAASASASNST
Chain of PIM1 (P11309 whole entry): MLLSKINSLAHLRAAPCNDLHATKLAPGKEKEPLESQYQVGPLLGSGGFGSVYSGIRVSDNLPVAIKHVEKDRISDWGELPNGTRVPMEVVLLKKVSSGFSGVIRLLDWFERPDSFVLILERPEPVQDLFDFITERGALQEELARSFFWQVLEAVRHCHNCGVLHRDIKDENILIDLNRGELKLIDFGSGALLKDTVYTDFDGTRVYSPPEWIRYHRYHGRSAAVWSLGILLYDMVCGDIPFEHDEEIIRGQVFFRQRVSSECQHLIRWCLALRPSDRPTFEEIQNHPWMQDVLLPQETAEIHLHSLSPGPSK
Chain of PIM2 (Q9P1W9 whole entry): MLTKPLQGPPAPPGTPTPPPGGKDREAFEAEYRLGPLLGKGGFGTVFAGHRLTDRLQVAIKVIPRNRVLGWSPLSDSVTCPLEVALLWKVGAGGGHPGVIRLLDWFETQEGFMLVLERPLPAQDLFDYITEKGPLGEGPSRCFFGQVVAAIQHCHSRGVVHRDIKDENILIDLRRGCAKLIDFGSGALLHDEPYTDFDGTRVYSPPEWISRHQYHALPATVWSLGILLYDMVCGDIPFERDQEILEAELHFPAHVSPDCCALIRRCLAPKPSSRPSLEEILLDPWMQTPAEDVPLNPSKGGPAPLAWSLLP

Row | Structure (SMILES) | EC50 ([1]; Homo sapiens, KMS-11) | IC50 (PIM1) | IC50 (GSK3β) | IC50 (PIM2) | IC50 (PIM3) | EC50 [1]
1 | N#CC[C@H]1O[C@@H](c2ccncc2NC(=O)c2nc(-c3c(F)cccc3F)c(F)cc2N)C[C@@H](O)[C@@H]1O [Example 139, 3-amino-N-(4-((2R,4R,5S,6R)-6-(cyanomethyl)-4,5-dihydroxytetrahydro-2H-pyran-2-yl)pyridin-3-yl)-6-(2,6-difluorophenyl)-5-fluoropicolinamide] | > 10 µM | 0.001 µM | 0.45 µM | 0.005 µM | 0.002 µM | 
2 | CC[C@H]1O[C@@H](c2ccncc2NC(=O)c2nc(-c3nccs3)ccc2N)C[C@@H](O)[C@@H]1O [Example 140, 3-amino-N-(4-((2R,4R,5S,6R)-6-ethyl-4,5-dihydroxytetrahydro-2H-pyran-2-yl)pyridin-3-yl)-6-(thiazol-2-yl)picolinamide] | > 10 µM | 0.018 µM | 2.25 µM | 0.054 µM | 0.019 µM | 
3 | NC(=O)C[C@H]1O[C@@H](c2ccncc2NC(=O)c2ccc(F)c(-c3c(F)cccc3F)n2)C[C@@H](O)[C@@H]1O [Example 142, N-(4-((2R,4R,5S,6R)-6-(2-amino-2-oxoethyl)-4,5-dihydroxytetrahydro-2H-pyran-2-yl)pyridin-3-yl)-6-(2,6-difluorophenyl)-5-fluoropicolinamide] | > 10 µM | 1.08 µM | > 25 µM | 6.6 µM | 0.89 µM | 
4 | C=C[C@H]1OC(c2ccncc2NC(=O)c2nc(-c3c(F)cccc3F)ncc2N)=C[C@@H](O)[C@@H]1O [Example 144, 5-amino-2-(2,6-difluorophenyl)-N-(4-((2R,3S,4R)-3,4-dihydroxy-2-vinyl-3,4-dihydro-2H-pyran-6-yl)pyridin-3-yl)pyrimidine-4-carboxamide] | 4.34 µM | 0.0053 µM | 0.394 µM | 0.0037 µM | 0.0043 µM | 
5 | C[C@H]1O[C@@H](c2ccncc2NC(=O)c2nc(-c3c(F)cccc3F)ncc2N)C[C@@H](O)[C@]1(C)O [Example 146, 5-amino-2-(2,6-difluorophenyl)-N-(4-((2R,4R,5S,6R)-4,5-dihydroxy-5,6-dimethyltetrahydro-2H-pyran-2-yl)pyridin-3-yl)pyrimidine-4-carboxamide] | > 10 µM | 0.0057 µM | 0.345 µM | 0.0095 µM | 0.0051 µM | 
6 | C[C@H]1O[C@@H](c2ccncc2NC(=O)c2nc(-c3nccs3)ccc2N)C[C@@H](O)[C@]1(C)O [Example 147, 3-amino-N-(4-((2R,4R,5S,6R)-4,5-dihydroxy-5,6-dimethyltetrahydro-2H-pyran-2-yl)pyridin-3-yl)-6-(thiazol-2-yl)picolinamide] | > 10 µM | 0.0174 µM | 1.32 µM | 0.0713 µM | 0.0185 µM | 
7 | N#C[C@H]1O[C@@H](c2ccncc2NC(=O)c2nc(-c3c(F)cccc3F)ncc2N)C[C@@H](O)[C@@H]1O [Example 148, 5-amino-N-(4-((2R,4R,5S,6R)-6-cyano-4,5-dihydroxytetrahydro-2H-pyran-2-yl)pyridin-3-yl)-2-(2,6-difluorophenyl)pyrimidine-4-carboxamide] | > 10 µM | 0.0297 µM | 0.691 µM | 0.0303 µM | 0.0204 µM | 
8 | N#C[C@H]1O[C@@H](c2ccncc2NC(=O)c2ccnc(-c3c(F)cccc3F)n2)C[C@@H](O)[C@@H]1O [Example 149, N-(4-((2R,4R,5S,6R)-6-cyano-4,5-dihydroxytetrahydro-2H-pyran-2-yl)pyridin-3-yl)-2-(2,6-difluorophenyl)pyrimidine-4-carboxamide] | > 10 µM | 0.0798 µM | 0.209 µM | 0.458 µM | 0.143 µM | 
9 | Nc1cc(F)c(-c2ccccc2F)nc1C(=O)Nc1cnccc1C1=CC(=O)[C@H](O)[C@@H](CCl)O1 [Example 151, 3-amino-N-(4-((2S,3R)-2-(chloromethyl)-3-hydroxy-4-oxo-3,4-dihydro-2H-pyran-6-yl)pyridin-3-yl)-5-fluoro-6-(2-fluorophenyl)picolinamide] | > 10 µM | 0.0052 µM | 1.43 µM | 0.0842 µM | 0.0251 µM | 
10 | N#CC[C@H]1O[C@@H](c2ccncc2NC(=O)c2nc(-c3c(F)cccc3F)c(F)cc2N)C[C@@H](O)[C@@H]1O [Example 152, 3-amino-N-(4-((2R,4R,5S,6R)-6-(cyanomethyl)-4,5-dihydroxytetrahydro-2H-pyran-2-yl)pyridin-3-yl)-6-(2,6-difluorophenyl)-5-fluoropicolinamide] |  | 0.0013 µM | 0.45 µM | 0.0054 µM | 0.0023 µM | > 10 µM
11 | CC[C@]1(O)[C@H](O)C[C@H](c2ccncc2NC(=O)c2nc(-c3cnn(C)c3C)ccc2N)O[C@@H]1C [Example 156, 3-amino-6-(1,5-dimethyl-1H-pyrazol-4-yl)-N-(4-((2R,4R,5S,6R)-5-ethyl-4,5-dihydroxy-6-methyltetrahydro-2H-pyran-2-yl)pyridin-3-yl)picolinamide] | > 10 µM | 0.0254 µM | 0.0219 µM | 0.532 µM | 0.0424 µM | 
12 | CC[C@]1(O)[C@H](O)C[C@H](c2ccncc2NC(=O)c2ncccc2N)O[C@@H]1C [Example 158, 3-amino-N-(4-((2R,4R,5S,6R)-5-ethyl-4,5-dihydroxy-6-methyltetrahydro-2H-pyran-2-yl)pyridin-3-yl)picolinamide] | > 10 µM | 0.0088 µM | 0.0231 µM | 0.0681 µM | 0.0069 µM | 
13 | CC[C@]1(O)[C@H](O)C[C@H](c2ccncc2NC(=O)c2nc(-c3ccnnc3)ccc2N)O[C@@H]1C [Example 160, 3-amino-N-(4-((2R,4R,5S,6R)-5-ethyl-4,5-dihydroxy-6-methyltetrahydro-2H-pyran-2-yl)pyridin-3-yl)-6-(pyridazin-4-yl)picolinamide] | > 10 µM | 0.166 µM | 0.0674 µM | 1.64 µM | 0.26 µM | 

Continued, values first:

Row | EC50 ([1]; Homo sapiens, KMS-11) | IC50 (PIM1) | IC50 (GSK3β) | IC50 (PIM2) | IC50 (PIM3) | EC50 [1] | Structure (SMILES)
14 | > 10 µM | 0.181 µM | 3.36 µM | 0.72 µM | 0.094 µM |  | NC(=O)[C@H]1O[C@@H](c2ccncc2NC(=O)c2ccc(F)c(-c3c(F)cccc3F)n2)C[C@@H](O)[C@@H]1O [Example 141, N-(4-((2R,4R,5S,6S)-6-carbamoyl-4,5-dihydroxytetrahydro-2H-pyran-2-yl)pyridin-3-yl)-6-(2,6-difluorophenyl)-5-fluoropicolinamide]
15 |  | 0.0184 µM | 2.25 µM | 0.0575 µM | 0.0194 µM | > 10 µM | CC[C@H]1O[C@@H](c2ccncc2NC(=O)c2nc(-c3nccs3)ccc2N)C[C@@H](O)[C@@H]1O [Example 145, 3-amino-N-(4-((2R,4R,5S,6R)-6-ethyl-4,5-dihydroxytetrahydro-2H-pyran-2-yl)pyridin-3-yl)-6-(thiazol-2-yl)picolinamide]
16 | > 10 µM | 0.0571 µM | 0.207 µM | 0.156 µM | 0.0533 µM |  | N#C[C@H]1O[C@@H](c2ccncc2NC(=O)c2nc(-c3nccs3)ccc2N)C[C@@H](O)[C@@H]1O [Example 150, 3-amino-N-(4-((2R,4R,5S,6R)-6-cyano-4,5-dihydroxytetrahydro-2H-pyran-2-yl)pyridin-3-yl)-6-(thiazol-2-yl)picolinamide]
17 |  | 0.0236 µM | 0.235 µM | 0.0267 µM | 0.0135 µM | > 10 µM | N#CC[C@H]1O[C@@H](c2ccncc2NC(=O)c2nc(-c3c(F)cccc3F)ncc2N)C[C@@H](O)[C@@H]1O [Example 153, 5-amino-N-(4-((2R,4R,5S,6R)-6-(cyanomethyl)-4,5-dihydroxytetrahydro-2H-pyran-2-yl)pyridin-3-yl)-2-(2,6-difluorophenyl)pyrimidine-4-carboxamide]
18 | 4.92 µM | 0.004 µM | 0.374 µM | 0.0463 µM | 0.0053 µM |  | CC[C@]1(O)[C@H](O)C[C@H](c2ccncc2NC(=O)c2nc(-c3ncccc3F)ccc2N)O[C@@H]1C [Example 155, 5-amino-N-(4-((2R,4R,5S,6R)-5-ethyl-4,5-dihydroxy-6-methyltetrahydro-2H-pyran-2-yl)pyridin-3-yl)-3′-fluoro-2,2′-bipyridine-6-carboxamide]
19 | 9.63 µM | 0.008 µM | 0.0079 µM | 0.0346 µM | 0.0081 µM |  | CC[C@]1(O)[C@H](O)C[C@H](c2ccncc2NC(=O)c2nc(-c3ccncc3F)ccc2N)O[C@@H]1C [Example 157, 5-amino-N-(4-((2R,4R,5S,6R)-5-ethyl-4,5-dihydroxy-6-methyltetrahydro-2H-pyran-2-yl)pyridin-3-yl)-3′-fluoro-2,4′-bipyridine-6-carboxamide]
